Assay results published in patent US10383925B2, “Cancer antigen EEF2” (International Institute of Cancer Immunology, Inc., priority 2009, dated 2019).
Ends that are not written are not given here.

Legend:
[1] = tested on: CTL from healthy donors having an HLA-A*0201 molecule; assay: Cytotoxic activity of CTL induced by HLA-A*0201-restricted eEF2 peptides; type: cell-based, human; conditions: PBMC of HLA-A*0201 donors stimulated with peptide; 6th day after the final peptide stimulation
Experimental: From T cell clones established as described above, CD8-positive T cells were purified using CD8 Microbeads to prepare effector cells. Subsequently, target cells were incubated with ^51Cr-labeled sodium chromate (Amersham Biosciences Corp., NJ) for 1 hour to label the cells. They were then mixed with the effector cells so that the ratio of cell count was 1:1, 3:1 and 9:1 of CTL/target cell (E/T) ratio, and the mixture was allowed to stand for 4 hours. The percentage of cells lysed was calculated according to the following equation: Specific lysis %=[(cpm experimental release−cpm spontaneous release)/(cpm maximal release−cpm spontaneous release)]×100. T2-2402 cells pulsed with an eEF2786-794 pep tide were used as the target cells, and T2-2402 cells not pulsed with the eEF2786-794 peptide (SEQ ID NO:7) as a negative control.
The experiments were carried out in much the same way as in the above Example 3. Thus, blood was taken from healthy donors having an HLA-A*0201 molecule, peripheral blood mononuclear cells were separated, and the first stimulation was carried out using the six candidate peptides (stimulator: self-PBMC). Subsequently, the peptide stimulation on the second day and later was carried out at intervals of 8 to 13 days (stimulator: allo B-LCL 3 mg/ml). Furthermore, IL-2 was added every 2 days after the second stimulation at a final concentration of 20 IU/ml. Cytotoxicity was measured on the 6th day after the final peptide stimulation.

CD8-positive T cells = assay: Interferon-γ activity, T cells with peptide-pulsed HLA-A*2402 molecule-expressing T2 cells; type: cell-based; conditions: HLA-A*2402 molecule-expressing T2 cells pulsed with peptide, 5 hours
Experimental: T cells were incubated together with HLA-A*2402 molecule-expressing T2 cells pulsed with eEF2 peptides (eEF2409-417, eEF2412-420 and eEF2701-709 peptides) in the presence of brefeldin A (Sigma) at 37° C. for 5 hours. After washing with PBS, CD3 and CD8 molecules which are cell surface antigens were stained by PerCP-conjugated anti-CD3 (BD Biosciences) and PE-conjugated anti-CD8 (Caltag, Burlingame, Calif.) antibodies on ice for 15 minutes. Subsequently, cells were fixed using Cytofix (BD Biosciences) on ice for 20 minutes, and intracellular IFN-γ was reacted with an FITC-conjugated anti-IFN-γ antibody (BD Biosciences) on ice for 30 minutes. Frequency of IFN-γ-positive cells present in CD8-positive T cells was analyzed using a flow cytometer.

[2] = tested on: CD8-positive T cells of donors having the HLA-A*0206 molecule; assay: Interferon-γ production, donors having the HLA-A*0206 molecule; type: cell-based
Experimental: T cells were incubated together with HLA-A*0201 molecule-expressing T2 cells pulsed with HLA-A*0201-restricted eEF2 peptides in the presence of brefeldin A (Sigma) at 37° C. for 5 hours. After washing with PBS, CD3 and CD8 molecules which are cell surface antigens were stained by PerCP-conjugated anti-CD3 (BD Biosciences) and PE-conjugated anti-CD8 (Caltag, Burlingame, Calif.) antibodies on ice for 15 minutes. Subsequently, cells were fixed using Cytofix (BD Biosciences) on ice for 20 minutes, and intracellular IFN-γ was reacted with an FITC-conjugated anti-IFN-γ antibody (BD Biosciences) on ice for 30 minutes. Frequency of IFN-γ-positive cells present in CD8-positive T cells was analyzed using a flow cytometer.
Next, evaluation was carried out as to whether the above 6 peptides and the eEF2292-300 peptide (SEQ ID NO:14) can bind to an HLA-A*0206 molecule and produce interferon-γ. The experiments were carried out in the same way as in the above method, except that donors having the HLA-A*0206 molecule were used.

colon cancer SW480 cells = assay: Cytotoxic activity (51Cr release) of peptide-induced CTL against endogenous eEF2 gene-expressing cells; type: cell-based; conditions: SW480 (HLA-A*2402 on surface) vs AZ-521 and MiaPaCa2 (no HLA-A*2402) as negative control

Row | Compound | cytotoxic activity [1] | also measured
1 | CC[C@H](C)[C@H](NC(=O)[C@H](CCC(=O)O)NC(=O)[C@H](CC(N)=O)NC(=O)[C@H](CC(C)C)NC(=O)[C@@H](N)Cc1ccc(O)cc1)C(=O)N[C@@H](CCCCN)C(=O)N[C@@H](CC(=O)O)C(=O)N[C@@H](CO)C(=O)N[C@H](C(=O)O)C(C)C [eEF2671-679] | increase of cytotoxic activity was observed | –
2 | RFYAFGRVF (listed as Homo sapiens) [eEF2409-417] | – | interferon-γ activity (frequency of IFN-γ-positive cells in CD8-positive T cells) (CD8-positive T cells): increase the interferon-γ activity
3 | LILDPIFKV (listed as Homo sapiens) [eEF2292-300] | – | production of interferon-γ [2]: also serve as an HLA-A*0206-restricted peptide
4 | CC[C@H](C)[C@H](NC(=O)[C@@H]1CCCN1C(=O)[C@H](CCC(=O)O)NC(=O)[C@H](CCSC)NC(=O)[C@H](CC(C)C)NC(=O)[C@@H](N)CCCNC(=N)N)C(=O)N[C@@H](Cc1ccc(O)cc1)C(=O)N[C@@H](CC(C)C)C(=O)N[C@H](C(=O)O)C(C)C [eEF2739-747] | increase of cytotoxic activity was observed | –
5 | CC(C)C[C@H](NC(=O)[C@H](CCC(N)=O)NC(=O)[C@H](CS)NC(=O)[C@H](Cc1ccccc1)NC(=O)[C@@H](NC(=O)[C@H](CCCNC(=N)N)NC(=O)[C@@H]1CCCN1C(=O)[C@H](CC(C)C)NC(=O)[C@@H](N)CCCCN)[C@@H](C)O)C(=O)O [eEF2284-292] | increase of cytotoxic activity was observed | –
6 | CC[C@H](C)[C@H](N)C(=O)N[C@@H](CC(C)C)C(=O)N[C@H](C(=O)N[C@@H](CC(=O)O)C(=O)N[C@H](C(=O)N[C@H](C(=O)N[C@@H](CCCCN)C(=O)NCC(=O)N[C@H](C(=O)O)C(C)C)[C@@H](C)O)[C@@H](C)CC)[C@@H](C)O [eEF2661-669] | increase of cytotoxic activity was observed | –
7 | AFGRVFSGL [eEF2412-420] | – | interferon-γ activity (frequency of IFN-γ-positive cells in CD8-positive T cells) (CD8-positive T cells): increase the interferon-γ activity
8 | CC[C@H](C)[C@H](NC(=O)[C@@H]1CCCN1C(=O)[C@H](CC(=O)O)NC(=O)[C@H](CC(C)C)NC(=O)[C@H](CC(C)C)NC(=O)[C@@H](N)CC(C)C)C(=O)N[C@@H](Cc1ccccc1)C(=O)N[C@@H](CCCCN)C(=O)N[C@H](C(=O)O)C(C)C [eEF2292-300 2L] | increase cytotoxicity | –
9 | CC[C@H](C)[C@H](NC(=O)[C@@H]1CCCN1C(=O)[C@H](CC(=O)O)NC(=O)[C@H](CC(C)C)NC(=O)[C@H](CCSC)NC(=O)[C@@H](N)CC(C)C)C(=O)N[C@@H](Cc1ccccc1)C(=O)N[C@@H](CCCCN)C(=O)N[C@H](C(=O)O)C(C)C [eEF2292-300 2M] | increase cytotoxicity | –
10 | CC(C)C[C@H](NC(=O)[C@H](CCCNC(=N)N)NC(=O)[C@H](CCCCN)NC(=O)[C@H](CC(C)C)NC(=O)CNC(=O)[C@H](CCC(=O)O)NC(=O)[C@@H](NC(=O)[C@H](CC(C)C)NC(=O)[C@@H](N)CCCCN)C(C)C)C(=O)O [eEF2519-527] | increase of cytotoxic activity was observed | –
11 | CC[C@H](C)[C@H](NC(=O)[C@H](Cc1ccc(O)cc1)NC(=O)[C@H](CCSC)NC(=O)[C@H](CCSC)NC(=O)[C@@H](N)CC(C)C)C(=O)N[C@@H](CO)C(=O)N[C@@H](CCCCN)C(=O)N[C@@H](CCSC)C(=O)N[C@H](C(=O)O)C(C)C [eEF2394-402] | increase of cytotoxic activity was observed | –
12 | CC[C@H](C)[C@H](NC(=O)[C@@H]1CCCN1C(=O)[C@H](CC(=O)O)NC(=O)[C@H](CC(C)C)NC(=O)[C@H](CCSC)NC(=O)[C@@H](N)CC(C)C)C(=O)N[C@@H](Cc1ccccc1)C(=O)N[C@@H](CCCCN)C(=O)N[C@@H](CC(C)C)C(=O)O [eEF2292-300 2M9L] | increase cytotoxicity | –
13 | CC[C@H](C)[C@H](NC(=O)[C@@H]1CCCN1C(=O)[C@H](CC(=O)O)NC(=O)[C@H](CC(C)C)NC(=O)[C@H](CC(C)C)NC(=O)[C@@H](N)CC(C)C)C(=O)N[C@@H](Cc1ccccc1)C(=O)N[C@@H](CCCCN)C(=O)N[C@@H](CC(C)C)C(=O)O [eEF2292-300 2L9L] | increase cytotoxicity | –
14 | AYLPVNESF [eEF2786-794] | – | cytotoxic activity against endogenous eEF2 gene-expressing cells (colon cancer SW480 cells): specifically impair the cells which express the eEF2 and have the HLA-A*2402 molecule
15 | RFDVHDVTL [eEF2701-709] | – | interferon-γ activity (frequency of IFN-γ-positive cells in CD8-positive T cells) (CD8-positive T cells): increase the interferon-γ activity
